Data set [1] has as its target T1, Phosphatidylinositol 4,5-bisphosphate 3-kinase catalytic subunit delta isoform (Homo sapiens, UniProt O00329).
T1 sequence (O00329 whole entry): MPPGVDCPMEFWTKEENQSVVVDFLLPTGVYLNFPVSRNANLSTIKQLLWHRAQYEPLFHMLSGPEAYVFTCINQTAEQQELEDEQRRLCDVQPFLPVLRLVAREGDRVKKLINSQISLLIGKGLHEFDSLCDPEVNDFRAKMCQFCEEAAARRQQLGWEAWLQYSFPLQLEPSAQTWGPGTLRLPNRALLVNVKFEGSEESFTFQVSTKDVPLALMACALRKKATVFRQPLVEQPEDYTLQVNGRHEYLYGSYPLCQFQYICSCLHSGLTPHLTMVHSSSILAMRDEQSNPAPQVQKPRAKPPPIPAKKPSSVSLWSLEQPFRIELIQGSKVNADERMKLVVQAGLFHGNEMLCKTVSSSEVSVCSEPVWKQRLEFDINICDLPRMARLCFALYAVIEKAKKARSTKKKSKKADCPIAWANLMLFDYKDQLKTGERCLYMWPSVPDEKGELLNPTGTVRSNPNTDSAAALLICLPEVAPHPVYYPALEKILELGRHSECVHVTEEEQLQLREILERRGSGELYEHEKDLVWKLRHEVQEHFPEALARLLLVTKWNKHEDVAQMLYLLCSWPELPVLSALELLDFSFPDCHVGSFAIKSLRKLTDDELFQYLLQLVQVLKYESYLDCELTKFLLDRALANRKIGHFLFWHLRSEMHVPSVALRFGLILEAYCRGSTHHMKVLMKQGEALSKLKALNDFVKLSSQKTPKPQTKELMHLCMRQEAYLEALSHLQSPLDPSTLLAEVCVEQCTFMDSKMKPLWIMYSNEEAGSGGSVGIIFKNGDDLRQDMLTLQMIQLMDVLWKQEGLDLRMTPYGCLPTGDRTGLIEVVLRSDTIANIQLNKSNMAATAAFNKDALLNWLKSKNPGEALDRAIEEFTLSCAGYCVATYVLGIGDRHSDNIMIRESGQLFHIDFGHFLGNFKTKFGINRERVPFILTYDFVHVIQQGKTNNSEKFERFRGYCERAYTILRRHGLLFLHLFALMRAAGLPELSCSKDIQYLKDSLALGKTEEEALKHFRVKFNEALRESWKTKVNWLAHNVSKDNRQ
As to the kind of experiment: Inhibition of PI3Kdelta (unknown origin) measured by ADP-Glo assay.

The subject of the next data set is HCT-116. As to the kind of experiment: Antiproliferative activity against human HCT-116 cells incubated for 72 hrs by CCK-8 assay. As to conditions: HCT-116, 72 h. Format: functional, cell-based.
In another data set the test system is T47D. As to the kind of experiment: Antiproliferative activity against human T47D cells incubated for 72 hrs by CCK-8 assay. Format: functional, cell-based.
Another data set deals with SU-DHL-6. As to the kind of experiment: Antiproliferative activity against human SU-DHL-6 cells incubated for 72 hrs by CCK-8 assay. As to conditions: SU-DHL-6, 72 h. Format: functional, cell-based.
Data set [2] concerns the target Phosphatidylinositol 4,5-bisphosphate 3-kinase catalytic subunit alpha isoform (Homo sapiens, UniProt P42336). As to the kind of experiment: Inhibition of PI3Kalpha (unknown origin) measured by ADP-Glo assay.
In data set [3] the target is Phosphatidylinositol 4,5-bisphosphate 3-kinase catalytic subunit gamma isoform (Homo sapiens, UniProt P48736). Description: Inhibition of PI3Kgamma (unknown origin) measured by ADP-Glo assay.
Sequence of Phosphatidylinositol 4,5-bisphosphate 3-kinase catalytic subunit gamma isoform (P48736 whole entry, canonical isoform): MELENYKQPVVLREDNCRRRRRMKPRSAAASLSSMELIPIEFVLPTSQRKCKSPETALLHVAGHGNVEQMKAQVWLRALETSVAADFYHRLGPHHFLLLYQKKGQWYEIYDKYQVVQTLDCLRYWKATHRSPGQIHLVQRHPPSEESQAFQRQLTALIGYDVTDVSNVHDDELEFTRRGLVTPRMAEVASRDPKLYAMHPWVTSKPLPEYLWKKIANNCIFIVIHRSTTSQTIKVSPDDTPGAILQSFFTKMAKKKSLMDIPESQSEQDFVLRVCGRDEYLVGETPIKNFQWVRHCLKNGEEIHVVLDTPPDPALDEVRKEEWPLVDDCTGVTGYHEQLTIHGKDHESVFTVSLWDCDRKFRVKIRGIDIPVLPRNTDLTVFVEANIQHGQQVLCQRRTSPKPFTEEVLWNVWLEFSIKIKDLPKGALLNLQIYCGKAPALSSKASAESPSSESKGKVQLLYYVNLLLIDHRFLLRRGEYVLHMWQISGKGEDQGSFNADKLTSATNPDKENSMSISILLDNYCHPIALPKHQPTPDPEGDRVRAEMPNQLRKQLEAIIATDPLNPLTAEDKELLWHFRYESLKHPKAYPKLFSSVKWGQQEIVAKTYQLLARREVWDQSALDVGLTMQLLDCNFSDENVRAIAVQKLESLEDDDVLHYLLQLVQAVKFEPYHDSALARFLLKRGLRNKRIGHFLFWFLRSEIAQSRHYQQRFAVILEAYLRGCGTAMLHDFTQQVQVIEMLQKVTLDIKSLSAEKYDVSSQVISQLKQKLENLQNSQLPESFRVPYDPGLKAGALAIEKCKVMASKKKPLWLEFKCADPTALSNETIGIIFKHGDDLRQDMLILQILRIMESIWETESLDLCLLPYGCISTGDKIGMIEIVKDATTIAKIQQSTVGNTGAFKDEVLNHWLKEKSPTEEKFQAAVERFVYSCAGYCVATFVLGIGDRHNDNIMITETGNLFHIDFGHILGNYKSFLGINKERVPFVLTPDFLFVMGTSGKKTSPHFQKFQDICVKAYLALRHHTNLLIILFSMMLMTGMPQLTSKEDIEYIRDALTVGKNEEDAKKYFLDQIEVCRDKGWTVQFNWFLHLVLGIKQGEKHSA
The species named for a further data set is Homo sapiens. Description: Selectivity ratio, ratio IC50 for inhibition of PI3Kgamma (unknown origin) to IC50 for inhibition of PI3Kdelta (unknown origin).
A short description of data set [4]: Half life in male Sprague-Dawley rat at 2 mg/kg, iv measured upto 24 hrs by LC-MS/MS analysis. It is filed as ADME, organism-based. Conditions: in vivo.
The nature of data set [5]: AUC (0 to infinity) in male Sprague-Dawley rat at 2 mg/kg, iv measured upto 24 hrs by LC-MS/MS analysis. Format: ADME, organism-based. On the set-up: time < 24 hrs, dose 2 mg/kg, route iv. As to conditions: in vivo.
Data set [6] is described as follows: Clearance in male Sprague-Dawley rat at 2 mg/kg, iv measured upto 24 hrs by LC-MS/MS analysis. Format: ADME, organism-based. As to conditions: in vivo.
A short description of data set [7]: Apparent volume of distribution in male Sprague-Dawley rat at 2 mg/kg, iv measured upto 24 hrs by LC-MS/MS analysis. It is filed as ADME, organism-based. As to conditions: in vivo, read-out: Vz.
Another data set addresses Histone deacetylase 1 (Homo sapiens, UniProt Q13547).
The target in a further data set is T2, Histone deacetylase 11 (Homo sapiens, UniProt Q96DB2).
T2 sequence (Q96DB2 whole entry): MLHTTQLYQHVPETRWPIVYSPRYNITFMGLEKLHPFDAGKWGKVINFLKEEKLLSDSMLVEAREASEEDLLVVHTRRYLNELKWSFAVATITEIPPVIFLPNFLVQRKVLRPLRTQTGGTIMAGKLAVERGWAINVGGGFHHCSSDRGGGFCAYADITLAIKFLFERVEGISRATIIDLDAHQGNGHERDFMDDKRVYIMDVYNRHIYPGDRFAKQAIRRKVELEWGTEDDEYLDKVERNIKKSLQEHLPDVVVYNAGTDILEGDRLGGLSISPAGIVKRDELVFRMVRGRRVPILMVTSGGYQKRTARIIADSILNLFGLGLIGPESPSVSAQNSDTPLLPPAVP

Sequence of Phosphatidylinositol 4,5-bisphosphate 3-kinase catalytic subunit alpha isoform (P42336 whole entry, canonical isoform): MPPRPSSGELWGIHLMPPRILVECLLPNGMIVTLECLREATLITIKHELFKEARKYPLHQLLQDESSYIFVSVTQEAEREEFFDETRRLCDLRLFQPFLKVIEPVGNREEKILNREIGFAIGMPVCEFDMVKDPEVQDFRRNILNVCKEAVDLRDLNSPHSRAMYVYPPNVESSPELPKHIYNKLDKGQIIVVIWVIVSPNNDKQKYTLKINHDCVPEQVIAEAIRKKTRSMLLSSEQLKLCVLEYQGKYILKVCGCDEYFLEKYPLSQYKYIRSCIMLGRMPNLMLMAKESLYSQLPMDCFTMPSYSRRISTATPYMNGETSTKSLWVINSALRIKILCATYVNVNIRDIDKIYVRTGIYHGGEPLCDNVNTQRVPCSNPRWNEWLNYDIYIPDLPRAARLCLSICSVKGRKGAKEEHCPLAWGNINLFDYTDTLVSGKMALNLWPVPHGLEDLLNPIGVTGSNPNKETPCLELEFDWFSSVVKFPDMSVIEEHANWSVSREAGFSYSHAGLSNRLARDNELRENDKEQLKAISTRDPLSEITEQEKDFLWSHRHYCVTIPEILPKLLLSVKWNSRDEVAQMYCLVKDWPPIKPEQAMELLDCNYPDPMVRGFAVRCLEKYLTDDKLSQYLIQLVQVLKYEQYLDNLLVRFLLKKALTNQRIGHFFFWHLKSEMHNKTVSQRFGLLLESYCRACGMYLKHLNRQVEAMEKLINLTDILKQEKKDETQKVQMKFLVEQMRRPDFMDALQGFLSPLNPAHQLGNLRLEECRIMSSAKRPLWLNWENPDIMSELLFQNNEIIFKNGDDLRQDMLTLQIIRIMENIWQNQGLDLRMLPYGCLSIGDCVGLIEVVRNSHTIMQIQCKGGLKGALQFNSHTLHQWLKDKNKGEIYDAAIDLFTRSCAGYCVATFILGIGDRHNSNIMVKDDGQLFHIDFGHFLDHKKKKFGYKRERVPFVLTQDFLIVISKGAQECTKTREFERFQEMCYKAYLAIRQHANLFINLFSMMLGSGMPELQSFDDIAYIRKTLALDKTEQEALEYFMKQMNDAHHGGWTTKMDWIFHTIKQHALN
Sequence of Histone deacetylase 1 (Q13547 whole entry): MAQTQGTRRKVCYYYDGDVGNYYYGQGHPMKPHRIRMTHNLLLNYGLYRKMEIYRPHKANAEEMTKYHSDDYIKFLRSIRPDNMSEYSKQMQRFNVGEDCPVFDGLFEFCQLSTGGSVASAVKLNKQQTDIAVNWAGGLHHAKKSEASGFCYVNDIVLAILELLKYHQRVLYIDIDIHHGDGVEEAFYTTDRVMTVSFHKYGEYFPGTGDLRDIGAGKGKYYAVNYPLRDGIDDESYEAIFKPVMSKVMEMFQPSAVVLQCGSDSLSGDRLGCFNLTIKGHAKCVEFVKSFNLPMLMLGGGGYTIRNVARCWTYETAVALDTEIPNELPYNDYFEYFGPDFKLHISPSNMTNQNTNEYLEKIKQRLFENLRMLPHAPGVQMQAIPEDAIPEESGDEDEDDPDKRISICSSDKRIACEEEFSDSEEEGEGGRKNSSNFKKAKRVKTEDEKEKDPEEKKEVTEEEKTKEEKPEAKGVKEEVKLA
Description for Histone deacetylase 11: Inhibition of HDAC11 (unknown origin) measured by fluorescence based assay

In the case of `N#Cc1c(N)nc(N)nc1N1CC2(CC2)C[C@H]1c1nc2cccc(Cl)c2c(=O)n1Cc1ccc(C(=O)NO)s1`, the IC50 was 2.3 nM in data set [1]; 800 nM with HCT-116; 42 nM in the data set on T47D; 150 nM in the data set with SU-DHL-6; 169 nM in [2]; 30.5 nM in data set [3]. Also, the values for the IC50 against Histone deacetylase 1 and on Histone deacetylase 11 were 230 nM and 1550 nM, respectively. Further, in the data set listed under Homo sapiens, the Ratio IC50 was determined as 13. The half-life in [4] is 27.6 min. The compound also yielded an AUC(0-inf) in data set [5] of 632 ng·h/mL. In addition, the clearance in data set [6] is 53 mL/min/kg. Also, the Vd in [7] stood at 2.09 L/kg.

The values above are taken from ChEMBL document CHEMBL5214954, “Identification of PI3K/HDAC Dual-targeted inhibitors with subtype selectivity as potential therapeutic agents against solid Tumors: Building HDAC6 potency in a Quinazolinone-based PI3Kδ-selective template” (Bioorg Med Chem, 2022).
